From ChEMBL document CHEMBL1155829, “Synthesis and cytotoxic, anti-inflammatory, and anti-oxidant activities of 2',5'-dialkoxylchalcones as cancer chemopreventive agents” (Bioorg Med Chem, 2008)
Active and inactive are the calls of the source. No cut-off for these calls is given here.

How the values were obtained:
[1] = Cytotoxicity against human Hep3B cells by MTT assay; format: functional, cell-based, Hep 3B2
HT-29 = assay: Cytotoxicity against human HT29 cells by MTT assay; format: functional, cell-based
MCF7 = assay: Cytotoxicity against human MCF7 cells by MTT assay; format: functional, cell-based
A549 [2] = assay: Cell cycle arrest in human A549 cells assessed as accumulation at G1 phase at 0.1 uM after 24 hrs by flow cytometry; format: functional
A549 [3] = assay: Cell cycle arrest in human A549 cells assessed as accumulation at G2/M phase at 0.03 uM after 24 hrs by flow cytometry; format: functional
[4] = test system: Radical scavenging activity; assay: Antioxidant activity assessed as DPPH radical scavenging activity; format: functional
A549 [5] = assay: Cell cycle arrest in human A549 cells assessed as accumulation at G1 phase at 0.03 uM after 24 hrs by flow cytometry; format: functional
A549 [6] = assay: Cell cycle arrest in human A549 cells assessed as accumulation at S phase at 0.03 uM after 24 hrs by flow cytometry; format: functional
A549 [7] = assay: Cell cycle arrest in human A549 cells assessed as accumulation at G1 phase at 10 uM after 24 hrs by flow cytometry; format: functional
[8] = biological target: Xanthine dehydrogenase/oxidase (Homo sapiens, UniProt P47989); assay: Inhibition of xanthine oxidase
Xanthine dehydrogenase/oxidase, sequence (P47989 whole entry): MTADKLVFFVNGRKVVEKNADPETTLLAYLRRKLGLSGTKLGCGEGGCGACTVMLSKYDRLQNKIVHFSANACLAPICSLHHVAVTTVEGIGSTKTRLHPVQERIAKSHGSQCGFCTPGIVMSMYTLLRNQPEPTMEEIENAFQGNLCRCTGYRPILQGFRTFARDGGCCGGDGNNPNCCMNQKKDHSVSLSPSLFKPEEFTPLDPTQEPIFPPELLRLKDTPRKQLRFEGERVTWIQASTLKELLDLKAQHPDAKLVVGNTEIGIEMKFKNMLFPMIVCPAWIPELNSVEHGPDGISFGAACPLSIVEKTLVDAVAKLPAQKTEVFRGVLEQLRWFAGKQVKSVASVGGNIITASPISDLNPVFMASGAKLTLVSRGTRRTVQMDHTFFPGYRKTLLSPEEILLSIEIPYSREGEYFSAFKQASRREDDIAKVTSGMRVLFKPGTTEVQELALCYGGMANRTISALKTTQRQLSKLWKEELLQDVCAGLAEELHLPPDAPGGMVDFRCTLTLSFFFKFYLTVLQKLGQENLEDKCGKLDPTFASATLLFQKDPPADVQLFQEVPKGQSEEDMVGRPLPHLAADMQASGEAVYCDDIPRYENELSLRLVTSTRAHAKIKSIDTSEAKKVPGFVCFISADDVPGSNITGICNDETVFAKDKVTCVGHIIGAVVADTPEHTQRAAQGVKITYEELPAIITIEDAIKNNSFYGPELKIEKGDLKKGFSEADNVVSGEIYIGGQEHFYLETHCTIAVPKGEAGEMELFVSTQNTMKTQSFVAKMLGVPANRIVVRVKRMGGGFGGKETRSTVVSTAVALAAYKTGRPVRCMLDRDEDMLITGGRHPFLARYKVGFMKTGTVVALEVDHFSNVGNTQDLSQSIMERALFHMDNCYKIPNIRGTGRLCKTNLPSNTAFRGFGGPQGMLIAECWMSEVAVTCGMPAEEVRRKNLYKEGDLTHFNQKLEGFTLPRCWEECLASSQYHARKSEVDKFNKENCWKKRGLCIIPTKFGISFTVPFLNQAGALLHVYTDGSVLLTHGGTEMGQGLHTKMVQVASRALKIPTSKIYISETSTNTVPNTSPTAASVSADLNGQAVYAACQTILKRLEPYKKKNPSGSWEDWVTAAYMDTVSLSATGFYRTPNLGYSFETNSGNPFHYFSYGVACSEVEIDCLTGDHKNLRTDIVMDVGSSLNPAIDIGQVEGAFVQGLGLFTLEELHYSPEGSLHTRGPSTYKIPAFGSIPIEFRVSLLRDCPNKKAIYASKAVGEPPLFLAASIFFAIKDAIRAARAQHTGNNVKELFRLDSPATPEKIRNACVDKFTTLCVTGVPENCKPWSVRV

A549 [9] = assay: Cell cycle arrest in human A549 cells assessed as accumulation at G2/M phase at 0.1 uM after 24 hrs by flow cytometry; format: functional
A549 [10] = assay: Cell cycle arrest in human A549 cells assessed as accumulation at G2/M phase at 10 uM after 24 hrs by flow cytometry; format: functional
A549 [11] = assay: Cytotoxicity against human A549 cells by MTT assay; format: functional, cell-based
A549 [12] = assay: Cell cycle arrest in human A549 cells assessed as accumulation at S phase at 10 uM after 24 hrs by flow cytometry; format: functional
[13] = Antioxidant activity assessed as inhibition of superoxide radical-induced DNA damage of pBR322 at 300 uM after 20 mins by gel electrophoresis; format: functional
[14] = Inhibition of tubulin polymerization
A549 [15] = assay: Cell cycle arrest in human A549 cells assessed as accumulation at S phase at 0.1 uM after 24 hrs by flow cytometry; format: functional
RAW264.7 [16] = assay: Antiinflammatory activity against mouse RAW264.7 cells assessed as inhibition of LPS-induced TNFalpha formation; format: functional, cell-based
RAW264.7 [17] = assay: Antiinflammatory activity against mouse RAW264.7 cells assessed as inhibition of LPS-induced nitric oxide production; format: functional, cell-based

| SMILES | IC50 [1] [µM] | IC50 (HT-29) [µM] | IC50 (MCF7) [µM] | also measured |
| --- | --- | --- | --- | --- |
| CCCOc1ccc(O)c(C(=O)/C=C/c2ccc(C)s2)c1 | 23.2 | 126 | 21.5 |  |
| CCCOc1ccc(OC)cc1C(=O)/C=C/c1ccc(C)s1 | 7 | 86.6 | 0.8 |  |
| CCOc1ccc(O)c(C(=O)/C=C/c2ccc(C)s2)c1 | 90.2 | 43.4 | 23.2 |  |
| O=c1[nH]cc(F)c(=O)[nH]1 [FLUOROURACIL] | 0.6 |  |  |  |
| CCOc1ccc(OC)cc1C(=O)/C=C/c1ccc(C)s1 | 0.2 | 0.1 | 2.3 | Activity (A549 [2]): 65.919%; Activity (A549 [3]): 2.104%; Activity [4]: inactive; Activity (A549 [5]): 70.207%; Activity (A549 [6]): 27.69%; Activity (A549 [7]): 64.102%; IC50 [8]: 131 µM; Activity (A549 [9]): 5.698%; Activity (A549 [10]): 11.627%; IC50 (A549 [11]): 6.3 µM; Activity (A549 [12]): 24.271%; Activity [13]: Active; Activity [14]: Active; Activity (A549 [15]): 28.384%; IC50 (RAW264.7 [16]): 0.4 µM |
| Cc1ccc(/C=C/C(=O)c2ccc(O)c(O)c2O)s1 |  | 35.9 |  |  |
| COc1ccc(O)c(C(=O)/C=C/c2ccc(C)s2)c1 | 87.5 | 71.5 | 34.6 |  |
| CCCCOc1ccc(OC)cc1C(=O)/C=C/c1ccc(C)s1 | 10.7 | 61.1 | 13.9 | IC50 (RAW264.7 [17]): 28 µM |
| CCCCOc1ccc(O)c(C(=O)/C=C/c2ccc(C)s2)c1 | 91.7 | 71.4 | 38.9 |  |
| Cc1ccc(/C=C/C(=O)c2cc(OCC(C)C)ccc2O)s1 | 54.4 | 30.7 | 13 |  |
| COc1ccc(C(=O)/C=C/c2ccc(C)s2)c(O)c1O | 10.7 | 53.4 | 20.7 |  |
| CCOc1ccc(OCC)c(C(=O)/C=C/c2ccc(C)s2)c1 | 31.6 | 3.2 | 1.4 | Activity [4]: inactive; IC50 [8]: 21.3 µM; IC50 (RAW264.7 [17]): 16.5 µM; IC50 (A549 [11]): 4.4 µM; Activity [13]: Active |
| Cc1ccc(/C=C/C(=O)c2cc(OC(C)C)ccc2O)s1 | 81.7 | 30.2 | 15.5 |  |
| CCCCCOc1ccc(O)c(C(=O)/C=C/c2ccc(C)s2)c1 | 112 | 86.9 | 48.4 |  |
